Converted amounts (≈) assume the structure as drawn.
Legend:
Assay in all cases: in vitro antibacterial activity (MIC, NCCLS dilution)
Type in all cases: cell-based
S. pneumoniae SV1 SP-3 = settings: Streptococcus pneumoniae, SV1SP3
Source text: (§1) The in vitro antibacterial activity of the compounds of the present invention may be assessed by following procedures recommended in (1) National Committee for Clinical Laboratory Standards (January 2003), Methods for dilution antimicrobial tests for bacteria that grow aerobically, Approved Standard (6th ed), M7-A6, NCCLS, Wayne, Pa.; (2) National Committee for Clinical Laboratory Standards (March 2001), Method for antimicrobial susceptibility testing of anaerobic bacteria, Approved Standard (5th ed), M11-A4, NCCLS, Wayne, Pa.; (3) National Committee for Clinical Laboratory Standards (January 2003), MIC testing supplemental tables, M100-S13 (for use with M7-A6), NCCLS, Wayne, Pa.; and (4) Murray P R, Baron E J, Jorgensen J H, et al. Manual of Clinical Microbiology (8th ed) Washington, D.C.: American Society for Microbiology Press, 2003. The MJC value is the lowest concentration of drug which prevented macroscopically visible growth under the conditions of the test.

E.faecalis MGH-2 EF 1-1 = settings: Enterococcus faecalis, MGH2EF11
Source text: as §1

S. aureus UC-76 SA-1 = settings: Staphylococcus aureus, UC76
Source text: as §1

Row | SMILES | MIC90 (S. pneumoniae SV1 SP-3) [µg/mL] | MIC90 (E.faecalis MGH-2 EF 1-1) [µg/mL] | MIC90 (S. aureus UC-76 SA-1) [µg/mL]
1 | CN1C(=O)Cc2cc(N3C[C@H](C(N)=O)OC3=O)cc(F)c21 [Example 3, (5R)-3-(7-fluoro-1-methyl-2-oxo-2,3-dihydro-1H-indol-5-yl)-2-oxo-oxazolidine-5-carboxylic acid amide] | 16 (≈ 54.6 µM) | 16 (≈ 54.6 µM) | 16 (≈ 54.6 µM)
2 | CC(C)N1C(=O)Cc2cc(N3C[C@H](C(N)=O)OC3=O)cc(F)c21 [Example 10, (5R)-3-(7-fluoro-1-isopropyl-2-oxo-2,3-dihydro-1H-indol-5-yl)-2-oxo-oxazolidine-5-carboxylic acid amide] | 4 (≈ 12.4 µM) | 4 (≈ 12.4 µM) | 4 (≈ 12.4 µM)
3 | NC(=O)[C@H]1CN(c2ccc3c(c2)CC(=O)N3C2CC2)C(=O)O1 [Example 11, (5R)-3-(1-cyclopropyl-2-oxo-2,3-dihydro-1H-indol-5-yl)-2-oxo-oxazolidine-5-carboxylic acid amide] | 8 (≈ 26.6 µM) | 16 (≈ 53.1 µM) | 8 (≈ 26.6 µM)
4 | CNC(=O)[C@H]1CN(c2ccc3c(c2)CC(=O)N3C2CC2)C(=O)O1 [Example 12, (5R)-3-(1-cyclopropyl-2-oxo-2,3-dihydro-1H-indol-5-yl)-2-oxo-oxazolidine-5-carboxylic acid methylamide] | 8 (≈ 25.4 µM) | 16 (≈ 50.7 µM) | 8 (≈ 25.4 µM)
5 | CCCN1C(=O)Cc2cc(N3C[C@H](C(N)=O)OC3=O)ccc21 [Example 13, (R)-2-oxo-3-(2-oxo-1-propyl-2,3-dihydro-1H-indol-5-yl)-oxazolidine-5-carboxylic acid amide] | 8 (≈ 26.4 µM) | 8 (≈ 26.4 µM) | 4 (≈ 13.2 µM)
6 | CCCN1C(=O)Cc2cc(N3C[C@H](C(=O)NC)OC3=O)ccc21 [Example 14, (R)-2-oxo-3-(2-oxo-1-propyl-2,3-dihydro-1H-indol-5-yl)-oxazolidine-5-carboxylic acid methylamide] | 4 (≈ 12.6 µM) | 4 (≈ 12.6 µM) | 4 (≈ 12.6 µM)
7 | CCCN1C(=O)Cc2cc(N3C[C@H](C(N)=O)OC3=O)cc(F)c21 [Example 15, (R)-3-(7-fluoro-2-oxo-1-propyl-2,3-dihydro-1H-indol-5-yl)-2-oxo-oxazolidine-5-carboxylic acid amide] | 8 (≈ 24.9 µM) | 8 (≈ 24.9 µM) | 4 (≈ 12.4 µM)
8 | CC(C)(C)N1C(=O)Cc2cc(N3C[C@H](C(N)=O)OC3=O)ccc21 [Example 16] | 16 (≈ 50.4 µM) | 16 (≈ 50.4 µM) | 8 (≈ 25.2 µM)
9 | CCC(C)N1C(=O)Cc2cc(N3C[C@H](C(N)=O)OC3=O)ccc21 (stereo partly drawn) [Example 17, (R)-3-(1-sec-butyl-2-oxo-2,3-dihydro-1H-indol-5-yl)-2-oxo-oxazolidine-5-carboxylic acid amide] | 8 (≈ 25.2 µM) | 8 (≈ 25.2 µM) | 4 (≈ 12.6 µM)
10 | CCC(C)N1C(=O)Cc2cc(N3C[C@H](C(=O)NC)OC3=O)ccc21 (stereo partly drawn) [Example 18, (R)-3-(1-sec-butyl-2-oxo-2,3-dihydro-1H-indol-5-yl)-2-oxo-oxazolidine-5-carboxylic acid methylamide] | 8 (≈ 24.1 µM) | 8 (≈ 24.1 µM) | 8 (≈ 24.1 µM)
11 | CC(CF)N1C(=O)Cc2cc(N3C[C@H](C(N)=O)OC3=O)ccc21 (stereo partly drawn) [Example 19, (R)-3-[1-(2-fluoro-1-methyl-ethyl)-2-oxo-2,3-dihydro-1H-indol-5-yl]-2-oxo-oxazolidine-5-carboxylic acid amide] | 4 (≈ 12.4 µM) | 4 (≈ 12.4 µM) | 4 (≈ 12.4 µM)
12 | CC(C)CN1C(=O)Cc2cc(N3C[C@H](C(N)=O)OC3=O)ccc21 [Example 20, (R)-3-(1-Isobutyl-2-oxo-2,3-dihydro-1H-indol-5-yl)-2-oxo-oxazolidine-5-carboxylic acid amide] | 64 (≈ 202 µM) | 64 (≈ 202 µM) | 64 (≈ 202 µM)
13 | CNC(=O)[C@H]1CN(c2ccc3c(c2)CC(=O)N3CC(C)C)C(=O)O1 [Example 21, (R)-3-(1-isobutyl-2-oxo-2,3-dihydro-1H-indol-5-yl)-2-oxo-oxazolidine-5-carboxylic acid methylamide] | 64 (≈ 193 µM) | 64 (≈ 193 µM) | 64 (≈ 193 µM)
14 | NC(=O)[C@H]1CN(c2ccc3c(c2)CC(=O)N3C2CCC2)C(=O)O1 [Example 22, (R)-3-(1-cyclobutyl-2-oxo-2,3-dihydro-1H-indol-5-yl)-2-oxo-oxazolidine-5-carboxylic acid amide] | 64 (≈ 203 µM) | 64 (≈ 203 µM) | 32 (≈ 101 µM)
15 | CNC(=O)[C@H]1CN(c2ccc3c(c2)CC(=O)N3C2CCC2)C(=O)O1 [Example 23, (R)-3-(1-cyclobutyl-2-oxo-2,3-dihydro-1H-indol-5-yl)-2-oxo-oxazolidine-5-carboxylic acid methylamide] | 32 (≈ 97.2 µM) | 64 (≈ 194 µM) | 16 (≈ 48.6 µM)

Next, values leading:

Row | MIC90 (S. pneumoniae SV1 SP-3) [µg/mL] | MIC90 (E.faecalis MGH-2 EF 1-1) [µg/mL] | MIC90 (S. aureus UC-76 SA-1) [µg/mL] | SMILES
16 | 2 (≈ 7.27 µM) | 4 (≈ 14.5 µM) | 2 (≈ 7.27 µM) | CN1C(=O)Cc2cc(N3C[C@H](C(N)=O)OC3=O)ccc21 [Example 1, (5R)-3-(1-methyl-2-oxo-2,3-dihydro-1H-indol-5-yl)-2-oxo-oxazolidine-5-carboxylic acid amide]
17 | 2 (≈ 6.91 µM) | 4 (≈ 13.8 µM) | 2 (≈ 6.91 µM) | CNC(=O)[C@H]1CN(c2ccc3c(c2)CC(=O)N3C)C(=O)O1 [Example 2]
18 | 2 (≈ 6.91 µM) | 4 (≈ 13.8 µM) | 4 (≈ 13.8 µM) | CCN1C(=O)Cc2cc(N3C[C@H](C(N)=O)OC3=O)ccc21 [Example 4, (5R)-3-(1-ethyl-2-oxo-2,3-dihydro-1H-indol-5-yl)-2-oxo-oxazolidine-5-carboxylic acid amide]
19 | 4 (≈ 13.2 µM) | 4 (≈ 13.2 µM) | 4 (≈ 13.2 µM) | CCN1C(=O)Cc2cc(N3C[C@H](C(=O)NC)OC3=O)ccc21 [Example 5]
20 | 4 (≈ 13 µM) | 4 (≈ 13 µM) | 4 (≈ 13 µM) | NC(=O)[C@H]1CN(c2ccc3c(c2)CC(=O)N3CCF)C(=O)O1 [Example 6]
21 | 4 (≈ 12.4 µM) | 4 (≈ 12.4 µM) | 4 (≈ 12.4 µM) | CNC(=O)[C@H]1CN(c2ccc3c(c2)CC(=O)N3CCF)C(=O)O1 [Example 7]
22 | 4 (≈ 13.2 µM) | 4 (≈ 13.2 µM) | 4 (≈ 13.2 µM) | CC(C)N1C(=O)Cc2cc(N3C[C@H](C(N)=O)OC3=O)ccc21 [Example 8]
23 | 4 (≈ 12.6 µM) | 8 (≈ 25.2 µM) | 8 (≈ 25.2 µM) | CNC(=O)[C@H]1CN(c2ccc3c(c2)CC(=O)N3C(C)C)C(=O)O1 [Example 9, (5R)-3-(1-isopropyl-2-oxo-2,3-dihydro-1H-indol-5-yl)-2-oxo-oxazolidine-5-carboxylic acid methylamide]

Reference: patent US20060030609A1, “Oxazolidinones containing oxindoles as antibacterial agents” (priority 2004, published 2006)
